From patent US20260116910A1, “POLYCYCLIC COMPOUNDS AND METHODS THEREOF” (HEPAITECH (BEIJING) BIOPHARMA TECHNOLOGY CO., LTD., priority 2021, published 2026) come the findings set out here.

SMILES strings stand for the structures. Like-named read-outs stand apart in the source and are kept apart here.

For this assay, the target named is T1, human FXR (NR1H4) (Homo sapiens, UniProt Q96RI1).
T1 sequence (Q96RI1 1-476 isoform Q96RI1-1): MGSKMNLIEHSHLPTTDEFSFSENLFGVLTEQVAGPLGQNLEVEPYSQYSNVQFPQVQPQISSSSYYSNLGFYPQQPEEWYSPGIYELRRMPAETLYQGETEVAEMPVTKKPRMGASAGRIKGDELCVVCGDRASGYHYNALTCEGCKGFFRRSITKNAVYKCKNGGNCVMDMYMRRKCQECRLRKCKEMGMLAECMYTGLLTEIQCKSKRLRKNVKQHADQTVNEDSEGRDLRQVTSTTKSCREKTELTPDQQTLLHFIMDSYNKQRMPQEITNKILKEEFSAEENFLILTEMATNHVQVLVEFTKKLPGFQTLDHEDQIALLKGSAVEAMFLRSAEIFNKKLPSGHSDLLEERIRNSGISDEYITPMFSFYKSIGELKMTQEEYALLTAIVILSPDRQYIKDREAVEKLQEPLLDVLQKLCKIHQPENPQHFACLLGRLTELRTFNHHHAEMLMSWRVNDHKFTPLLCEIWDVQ
Briefly: Human FXR (NR1H4) agonist assessment, FXRE-NanoLuc reporter in HEK293T cells. Type of assay: cell-based. The note with it: for EC50: read-out: EC50. The method, then:
As those skilled in the art appreciate, various technologies are available for assessment of FXR activation in accordance with the present disclosure. […] Human FXR (NR1H4) agonist assessment (see, e.g., Yu et al. eLife 2019; 8: e48431): HEK293T cells stably expressing human FXR and containing FXR response element (FXRE)-NanoLuc reporter were cultured in DMEM medium supplemented with 10% FBS and 1% PS, at 37° C. in a humidified atmosphere with 5% CO2. Cells were detached by centrifuging (1000 rpm, 3 min). The pellet was re-suspended in medium, and cell density was adjusted to about 1×10^6 cells/mL. 100 μL suspension was seeded to each well of a white-walled, clear-bottom 96-well microplates (cell plate). Cells in microplates were cultured overnight.
In the following day, cells were grown to higher than 95% density in each well. Culture medium was replaced, and compounds were added to the wells. 0.01% DMSO (v/v) served as negative control. Plates were incubated at 37° C. in 5% CO2 for 24 hr.
In the following day, a 10 μL aliquot of cell culture medium was removed from each well and combined with 40 μL culture medium plus […] assay buffer (containing 20 mM of the luciferase substrate coelenterazine). After 5 min incubation, luminescence was measured using an EnVision plate reader (PerkinElmer).
In some embodiments, gradient diluted solutions of several concentrations were used to treat cells and corresponding responses were used to fit sigmoid function and to derive EC50 in Origin.

[1] abbreviates: FXR activation, HEK293T FXRE-NanoLuc reporter, 24 hr.

One may read the EC50 as the concentration needed to bring the measured effect to its halfway point. As for `CC[C@H]1[C@@H](O)[C@@H]2[C@H](CC[C@]3(C)[C@@H]([C@H](C)CCNC(=S)NS(=O)(=O)c4cccs4)CC[C@@H]23)[C@@]2(C)CCCC[C@@H]12` [7-3], the “Efficacy (maximum measured induction of NanoLuc, normalized to CDCA set as 100%)” value is reported as “C (key: A: efficacy >400%; B: 300%<efficacy <=400%; C: 100%<efficacy <=300%; D: efficacy <=100%)”. Further, the EC50 under setting [1] was less than 1000 nM.
For the molecule `CC[C@H]1[C@@H](O)[C@@H]2[C@H](CC[C@]3(C)[C@@H]([C@H](C)CCNC(=O)C(=O)O)CC[C@@H]23)[C@@]2(C)CCCC[C@@H]12` [8-1], under setting [1], the “Efficacy (maximum measured induction of NanoLuc, normalized to CDCA set as 100%)” value is recorded as “B (300%<efficacy <=400%)” and the EC50 was 1000 to 10000 nM.
The corresponding values for `CC[C@H]1[C@@H](O)[C@@H]2[C@H](CC[C@]3(C)[C@@H]([C@H](C)CCN)CC[C@@H]23)[C@@]2(C)CCC(F)(F)C[C@@H]12` [11-1] are “C (100%<efficacy <=300%)” and more than 10000 nM.
In the same order, the values of `CC[C@H]1[C@@H](O)[C@@H]2[C@H](CC[C@]3(C)[C@@H]([C@H](C)CCc4nnc(C(C)C)s4)CC[C@@H]23)[C@@]2(C)CCCC[C@@H]12` [15-1] are “B (300%<efficacy <=400%)” and 1000 to 10000 nM.
In the same order, the values of `CC[C@H]1[C@@H](O)[C@@H]2[C@H](CC[C@]3(C)[C@@H]([C@H](C)CCc4nnc(N)[nH]4)CC[C@@H]23)[C@@]2(C)CCCC[C@@H]12` [15-2] are “C (100%<efficacy <=300%)” and less than 1000 nM.
With `CC[C@H]1[C@@H](O)[C@@H]2[C@H](CC[C@]3(C)[C@@H]([C@H](C)CCc4nnc(NS(=O)(=O)c5ccc6c(c5)OCO6)[nH]4)CC[C@@H]23)[C@@]2(C)CCCC[C@@H]12` [15-3], under setting [1], the “Efficacy (maximum measured induction of NanoLuc, normalized to CDCA set as 100%)” value is listed as “C (100%<efficacy <=300%)” and the concentration for a half-maximal effect (EC50) was in the range of 1000 to 10000 nM.
For the molecule `CC[C@H]1[C@@H](O)[C@@H]2[C@H](CC[C@]3(C)[C@@H]([C@H](C)CCC(=O)Nc4nnn[nH]4)CC[C@@H]23)[C@@]2(C)CCCC[C@@H]12` [16-1], the “Efficacy (maximum measured induction of NanoLuc, normalized to CDCA set as 100%)” value is “B (key: A: efficacy >400%; B: 300%<efficacy <=400%; C: 100%<efficacy <=300%; D: efficacy <=100%)”. The EC50 under setting [1] lay in the range of 1000 to 10000 nM.
For the molecule `CC[C@H]1[C@@H](O)[C@@H]2[C@H](CC[C@]3(C)[C@@H]([C@H](C)Cc4nnn[nH]4)CC[C@@H]23)[C@@]2(C)CCCC[C@@H]12` [16-2], under setting [1], the “Efficacy (maximum measured induction of NanoLuc, normalized to CDCA set as 100%)” value is listed as “C (100%<efficacy <=300%)” and the half-maximal effective concentration (EC50) was less than 1000 nM.
For the molecule `CC[C@H]1[C@@H](O)[C@@H]2[C@H](CC[C@]3(C)[C@@H]([C@H](C)CCNC(=N)N)CC[C@@H]23)[C@@]2(C)CCCC[C@@H]12` [17-1], under setting [1], the “Efficacy (maximum measured induction of NanoLuc, normalized to CDCA set as 100%)” value is given as “A (efficacy >400%)” and the EC50 was less than 1000 nM.
The corresponding values for `CC[C@H]1[C@@H](O)[C@@H]2[C@H](CC[C@]3(C)[C@@H]([C@H](C)CCNC(=N)NS(=O)(=O)c4cccs4)CC[C@@H]23)[C@@]2(C)CCCC[C@@H]12` [17-2] are “B (300%<efficacy <=400%)” and less than 1000 nM.
The corresponding values for `CC[C@H]1[C@@H](O)[C@@H]2[C@H](CC[C@]3(C)[C@@H]([C@H](C)CCOC(=O)NS(=O)(=O)c4ccc5c(c4)CCC(C)(C)O5)CC[C@@H]23)[C@@]2(C)CCCC[C@@H]12` [19-1] are “B (300%<efficacy <=400%)” and less than 1000 nM.
Consider `CC[C@H]1[C@@H](O)[C@@H]2[C@H](CC[C@]3(C)[C@@H]([C@H](C)CCOC(=O)NS(=O)(=O)c4ccc(N5CCCCC5)nc4)CC[C@@H]23)[C@@]2(C)CCCC[C@@H]12` [19-2], for which, under setting [1], the “Efficacy (maximum measured induction of NanoLuc, normalized to CDCA set as 100%)” value was “B (300%<efficacy <=400%)” and the EC50 was less than 1000 nM.
Take `CC[C@H]1[C@@H](O)[C@@H]2[C@H](CC[C@]3(C)[C@@H]([C@H](C)CCOC(=O)NS(=O)(=O)c4ccc(C(C)(C)CF)cc4)CC[C@@H]23)[C@@]2(C)CCCC[C@@H]12` [19-3]: under setting [1], the “Efficacy (maximum measured induction of NanoLuc, normalized to CDCA set as 100%)” value is “A (efficacy >400%)” and the EC50 is less than 1000 nM.
As for `C[C@H](CCNC(=O)NS(=O)(=O)c1ccc(C(C)(C)CF)cc1)[C@H]1CC[C@H]2[C@@H]3CC[C@@H]4CCCC[C@]4(C)[C@H]3CC[C@]12C` [21-1], the “Efficacy (maximum measured induction of NanoLuc, normalized to CDCA set as 100%)” value is reported as “B (key: A: efficacy >400%; B: 300%<efficacy <=400%; C: 100%<efficacy <=300%; D: efficacy <=100%)”. In addition, the EC50 under setting [1] was 1000 to 10000 nM.
The corresponding values for `C[C@H](CCCOC(=O)NS(=O)(=O)c1ccc(C(C)(C)CF)cc1)[C@H]1CC[C@H]2[C@@H]3CC[C@@H]4CCCC[C@]4(C)[C@H]3CC[C@]12C` [22-1] are “B (key: A: efficacy >400%; B: 300%<efficacy <=400%; C: 100%<efficacy <=300%; D: efficacy <=100%)” and 1000 to 10000 nM.
Regarding `C[C@H](CNC(=O)NS(=O)(=O)c1ccc(C(C)(C)CF)cc1)[C@H]1CC[C@H]2[C@@H]3CC[C@@H]4CCCC[C@]4(C)[C@H]3CC[C@]12C` [23-1], under setting [1], the “Efficacy (maximum measured induction of NanoLuc, normalized to CDCA set as 100%)” value is recorded as “B (300%<efficacy <=400%)” and the EC50 lay within 1000 to 10000 nM.
For the molecule `C[C@H](CCCCNC(=O)NS(=O)(=O)c1ccc(C(C)(C)CF)cc1)[C@H]1CC[C@H]2[C@@H]3CC[C@@H]4CCCC[C@]4(C)[C@H]3CC[C@]12C` [24-1], under setting [1], the “Efficacy (maximum measured induction of NanoLuc, normalized to CDCA set as 100%)” value is on record as “B (300%<efficacy <=400%)” and the EC50 lay in the range of 1000 to 10000 nM.
In the same order, the values of `C[C@H](CCC(=O)O)[C@H]1CC[C@H]2[C@@H]3CC[C@@H]4C[C@H](O)CC[C@]4(C)[C@H]3C[C@@H](O)[C@]12C` [RC-4] are “A (efficacy >400%)” and less than 1000 nM.
